Earlier results, collected in patent US20160244831A9, “Genetic Alterations Associated with Autism and the Autistic Phenotype and Methods of Use Thereof for the Diagnosis and Treatment of Autism” (The Children's Hospital of Philadelphia, priority 2011, published 2016).

What was measured:
[1] = individuals exposed between days 24-28 post-fertilization
[2] = at levels that are highly teratogenic in humans

O=C1CCC(N2C(=O)c3ccccc3C2=O)C(=O)N1 (stereo not shown) [Thalidomide]
rate of ASD [1]: 27%
expression of RANBP1 mRNA (RANBP1 mRNA): decreased expression
teratogenicity in animals [2]: lack of teratogenicity

CCCC(CCC)C(=O)O [Valproate, Valproic acid]
expression of RANBP1 mRNA (RANBP1 mRNA): decreased expression
